In patent US20260193293A1, “PEPTIDES CAPABLE OF INHIBITING PROTEIN-PROTEIN INTERACTIONS AT GABAB1A SUBUNIT AND USES THEREOF” (UNIVERSITY OF COPENHAGEN, priority 2022, published 2026):
Like-named read-outs stand apart in the source and are kept apart here. Values belong to the molecule of their own block, whether it stands above or below them. Non-standard residues stand in square brackets, D forms with d. Residues, ends and D or L forms follow the SMILES beside them. 1Nal = N[C@@H](Cc1cccc2ccccc12)C(=O)O; 2Nal = N[C@@H](Cc1ccc2ccccc2c1)C(=O)O; 3Pal = N[C@@H](Cc1cccnc1)C(=O)O; 4Pal = N[C@@H](Cc1ccncc1)C(=O)O; NMeE = CN[C@@H](CCC(=O)O)C(=O)O

Target: Sushi domains (SD1/2) protein
Test: Fluorescence polarization (FP) competition assay with AJAP-1probe, calculated Ki
Format: binding
Method in brief: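 Competition against 25 nM TAMRA-labelled peptide probe binding SD1/2, in PBS pH 7.4 with 1% BSA at rt, read at 530/580 nm. IC50 from sigmoidal dose-response fits, at least triplicate; Ki calculated from IC50 using probe Kd from saturation binding.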

[1] = Table 5, elongation and truncation scan of AJAP-1 binding epitope, read-out: Ki (nM) mean ± SEM
[2] = Table 6, elongation and truncation scan of PIANP binding epitope, read-out: Ki (nM) mean ± SEM
[3] = Table 16, ncAAs incorporated peptides, read-out: Ki (nM) mean ± SEM
[4] = Table 11, deep mutational scanning validation variants of AJAP-1WT, read-out: Ki (nM) mean ± SEM
[5] = Table 4, truncation and elongation scans of APP epitope, read-out: Ki (nM) mean ± SEM

- Ki (Table 9, Ala-, D-amino acids and N-methylation scans of PIANPWT, read-out: Ki (nM) mean ± SEM): 911 ± 13 nM
SMILES: CC[C@H](C)[C@H](NC(=O)[C@H](C)NC(=O)[C@H](C)NC(=O)[C@@H]1CCCN1C(C)=O)C(=O)N[C@H](C(=O)N[C@@H](Cc1c[nH]c2ccccc12)C(=O)NCC(=O)N1CCC[C@H]1C(=O)N[C@H](C(=O)N[C@H](C(=O)N[C@@H](CO)C(=O)N[C@@H](CCCNC(=N)N)C(=O)N[C@@H](CCC(=O)O)C(=O)N[C@@H](CC(=O)O)C(N)=O)C(C)C)[C@@H](C)O)C(C)C [PAAIVWGPTVSRED] (Ac-PAAIVWGPTVSRED-NH2)

- Ki [1]: 2470 ± 170 nM
SMILES: CC[C@H](C)[C@H](NC(=O)[C@H](Cc1ccccc1)NC(=O)[C@H](CCC(=O)O)NC(=O)[C@@H](NC(=O)[C@H](CCC(=O)O)NC(=O)[C@@H](NC(C)=O)[C@@H](C)O)[C@@H](C)O)C(=O)N[C@@H](C)C(=O)N[C@@H](Cc1c[nH]c2ccccc12)C(=O)NCC(N)=O (Ac-TETEFIAWG-NH2)

- Ki [2]: 716 ± 6 nM
SMILES: CC[C@H](C)[C@H](NC(=O)[C@H](C)NC(=O)[C@H](Cc1c[nH]c2ccccc12)NC(=O)[C@@H]1CCCN1C(C)=O)C(=O)N[C@H](C(=O)N[C@@H](Cc1c[nH]c2ccccc12)C(=O)NCC(=O)N1CCC[C@H]1C(=O)N[C@H](C(N)=O)[C@@H](C)O)C(C)C (Ac-PWAIVWGPT-NH2)

- Ki (Table 13, peptides for affinity maturation, read-out: Ki (nM) mean ± SEM): 222 ± 1 nM
SMILES: CC[C@H](C)[C@H](NC(=O)[C@H](C)NC(=O)[C@H](Cc1c[nH]c2ccccc12)NC(=O)[C@@H]1CCCN1C(C)=O)C(=O)N[C@H](C(=O)N[C@@H](Cc1c[nH]c2ccccc12)C(=O)NCC(=O)N1CCC[C@H]1C(=O)N[C@H](C(=O)NCC(=O)N[C@@H](CC(=O)O)C(=O)N[C@@H](CCC(=O)O)C(=O)N[C@@H](CC(=O)O)C(N)=O)[C@@H](C)O)C(C)C [PWAIVWGPTGDED] (Ac-PWAIVWGPTGDED-NH2)

- Ki [3]: 373 ± 7 nM
SMILES: CC(=O)N[C@@H](CCC(=O)O)C(=O)N[C@@H](CC(=O)O)C(=O)N[C@@H](CC(=O)O)C(=O)N[C@@H](CO)C(=O)N[C@@H](Cc1cccnc1)C(=O)N[C@H](C(=O)N[C@@H](Cc1c[nH]c2ccccc12)C(=O)N[C@@H](Cc1c[nH]c2ccccc12)C(=O)NCC(=O)NCC(=O)N[C@@H](C)C(=O)N[C@@H](CC(=O)O)C(=O)N[C@H](C(=O)N[C@@H](CC(=O)O)C(N)=O)[C@@H](C)O)C(C)C (Ac-EDDS[3Pal]VWWGGADTD-NH2)

- Ki (Table 8, in μM, read-out: Ki (nM) mean ± SEM): > 6250 nM
SMILES: CC(=O)N[C@@H](CCC(=O)O)C(=O)N[C@H](C(=O)N[C@@H](CCC(=O)O)C(=O)N[C@@H](Cc1ccccc1)C(=O)N[C@@H](C)C(=O)N[C@@H](C)C(=O)N[C@@H](Cc1c[nH]c2ccccc12)C(=O)NCC(=O)N1CCC[C@H]1C(=O)N[C@H](C(=O)NCC(=O)N[C@@H](CC(=O)O)C(=O)N[C@@H](CCC(=O)O)C(=O)N[C@@H](CC(=O)O)C(N)=O)[C@@H](C)O)[C@@H](C)O [ETEFAAWGPTGDED] (Ac-ETEFAAWGPTGDED-NH2)

- Ki [3]: 814 ± 10 nM
SMILES: CC(=O)N[C@@H](CCC(=O)O)C(=O)N[C@@H](CC(=O)O)C(=O)N[C@@H](CC(=O)O)C(=O)N[C@@H](CO)C(=O)N[C@@H](CC(=O)O)C(=O)N[C@H](C(=O)N[C@@H](Cc1c[nH]c2ccccc12)C(=O)N[C@@H](Cc1ccc2ccccc2c1)C(=O)NCC(=O)NCC(=O)N[C@@H](C)C(=O)N[C@@H](CC(=O)O)C(=O)N[C@H](C(=O)N[C@@H](CC(=O)O)C(N)=O)[C@@H](C)O)C(C)C [EDDSDVW(2Nala)GGADTD] (Ac-EDDSDVW[2Nal]GGADTD-NH2)

- Ki [3]: 424 ± 13 nM
SMILES: CC(=O)N[C@@H](CCC(=O)O)C(=O)N[C@@H](CC(=O)O)C(=O)N[C@@H](CC(=O)O)C(=O)N[C@@H](CO)C(=O)N[C@@H](Cc1ccncc1)C(=O)N[C@H](C(=O)N[C@@H](Cc1c[nH]c2ccccc12)C(=O)N[C@@H](Cc1c[nH]c2ccccc12)C(=O)NCC(=O)NCC(=O)N[C@@H](C)C(=O)N[C@@H](CC(=O)O)C(=O)N[C@H](C(=O)N[C@@H](CC(=O)O)C(N)=O)[C@@H](C)O)C(C)C (Ac-EDDS[4Pal]VWWGGADTD-NH2)

- Ki (purified peptides, read-out: Ki): 465 nM
SMILES: CC[C@H](C)[C@H](NC(=O)[C@H](C)NC(=O)[C@H](Cc1c[nH]c2ccccc12)NC(=O)[C@@H]1CCCN1C(C)=O)C(=O)N[C@H](C(=O)N[C@@H](Cc1c[nH]c2ccccc12)C(=O)NCC(=O)N1CCC[C@H]1C(=O)N[C@H](C(=O)N[C@H](C(=O)N[C@@H](CO)C(=O)N[C@@H](CCCNC(=N)N)C(=O)N[C@@H](CCC(=O)O)C(=O)N[C@@H](CC(=O)O)C(=O)NCC(N)=O)C(C)C)[C@@H](C)O)C(C)C [Peptide 14] (Ac-PWAIVWGPTVSREDG-NH2)

- Ki [4]: 54 ± 1 nM
SMILES: CC[C@H](C)[C@H](NC(=O)[C@H](Cc1ccccc1)NC(=O)[C@H](CCC(=O)O)NC(=O)[C@@H](NC(=O)[C@H](CCC(=O)O)NC(C)=O)[C@@H](C)O)C(=O)N[C@@H](C)C(=O)N[C@@H](Cc1c[nH]c2ccccc12)C(=O)NCC(=O)N1CCC[C@H]1C(=O)N[C@H](C(=O)NCC(=O)N[C@@H](CC(=O)O)C(=O)N[C@@H](Cc1c[nH]c2ccccc12)C(=O)N[C@@H](CC(=O)O)C(N)=O)[C@@H](C)O (Ac-ETEFIAWGPTGDWD-NH2)

- Ki (Table 12, deep mutational scanning validation variants of PIANPWT, read-out: Ki (nM) mean ± SEM): 327 ± 6 nM
SMILES: CC[C@H](C)[C@H](NC(=O)[C@H](C)NC(=O)[C@H](Cc1c[nH]c2ccccc12)NC(=O)[C@@H]1CCCN1C(C)=O)C(=O)N[C@H](C(=O)N[C@@H](Cc1c[nH]c2ccccc12)C(=O)NCC(=O)N1CCC[C@H]1C(=O)N[C@H](C(=O)N[C@H](C(=O)N[C@@H](CO)C(=O)N[C@@H](CC(=O)O)C(=O)N[C@@H](CCC(=O)O)C(=O)N[C@@H](CC(=O)O)C(N)=O)C(C)C)[C@@H](C)O)C(C)C [PWAIVWGPTVSDED] (Ac-PWAIVWGPTVSDED-NH2)

- Ki [5]: 341 ± 6 nM
SMILES: CC(=O)N[C@@H](CCC(=O)O)C(=O)N[C@@H](CCC(=O)O)C(=O)N[C@@H](CC(=O)O)C(=O)N[C@@H](CC(=O)O)C(=O)N[C@@H](CO)C(=O)N[C@@H](CC(=O)O)C(=O)N[C@H](C(=O)N[C@@H](Cc1c[nH]c2ccccc12)C(=O)N[C@@H](Cc1c[nH]c2ccccc12)C(=O)NCC(=O)NCC(=O)N[C@@H](C)C(=O)N[C@@H](CC(=O)O)C(=O)N[C@H](C(=O)N[C@@H](CC(=O)O)C(=O)N[C@@H](Cc1ccc(O)cc1)C(=O)N[C@@H](C)C(=O)N[C@@H](CC(=O)O)C(=O)NCC(=O)NCC(N)=O)[C@@H](C)O)C(C)C (Ac-EEDDSDVWWGGADTDYADGG-NH2)

- Ki [3]: 114 ± 1 nM
SMILES: CC(=O)N[C@@H](CCC(=O)O)C(=O)N[C@@H](CC(=O)O)C(=O)N[C@@H](CC(=O)O)C(=O)N[C@@H](CO)C(=O)N[C@@H](CC(=O)O)C(=O)N[C@H](C(=O)N[C@@H](Cc1c[nH]c2ccccc12)C(=O)N[C@@H](Cc1c[nH]c2ccccc12)C(=O)N[C@@H](Cc1cccc2ccccc12)C(=O)NCC(=O)N[C@@H](C)C(=O)N[C@@H](CC(=O)O)C(=O)N[C@H](C(=O)N[C@@H](CC(=O)O)C(N)=O)[C@@H](C)O)C(C)C (Ac-EDDSDVWW[1Nal]GADTD-NH2)

- Ki [2]: 561 ± 21 nM
SMILES: CC[C@H](C)[C@H](NC(=O)[C@H](C)NC(=O)[C@H](Cc1c[nH]c2ccccc12)NC(=O)[C@@H]1CCCN1C(C)=O)C(=O)N[C@H](C(=O)N[C@@H](Cc1c[nH]c2ccccc12)C(=O)NCC(=O)N1CCC[C@H]1C(=O)N[C@H](C(=O)N[C@H](C(N)=O)C(C)C)[C@@H](C)O)C(C)C (Ac-PWAIVWGPTV-NH2)

- Ki [5]: 517 ± 16 nM
SMILES: CC(=O)N[C@@H](CC(=O)O)C(=O)N[C@@H](CC(=O)O)C(=O)N[C@@H](CO)C(=O)N[C@@H](CC(=O)O)C(=O)N[C@H](C(=O)N[C@@H](Cc1c[nH]c2ccccc12)C(=O)N[C@@H](Cc1c[nH]c2ccccc12)C(=O)NCC(=O)NCC(=O)N[C@@H](C)C(=O)N[C@@H](CC(=O)O)C(=O)N[C@H](C(=O)N[C@@H](CC(=O)O)C(=O)N[C@@H](Cc1ccc(O)cc1)C(=O)N[C@@H](C)C(=O)N[C@@H](CC(=O)O)C(N)=O)[C@@H](C)O)C(C)C (Ac-DDSDVWWGGADTDYAD-NH2)

- Ki [4]: 28 ± 1 nM
SMILES: CC[C@H](C)[C@H](NC(=O)[C@H](Cc1ccccc1)NC(=O)[C@H](CCC(=O)O)NC(=O)[C@@H](NC(=O)[C@H](CCC(=O)O)NC(C)=O)C(C)C)C(=O)N[C@@H](C)C(=O)N[C@@H](Cc1c[nH]c2ccccc12)C(=O)NCC(=O)N1CCC[C@H]1C(=O)N[C@H](C(=O)NCC(=O)N[C@@H](CC(=O)O)C(=O)N[C@@H](CCC(=O)O)C(=O)N[C@@H](CC(=O)O)C(N)=O)[C@@H](C)O [EVEFIAWGPTGDED] (Ac-EVEFIAWGPTGDED-NH2)

- Ki [1]: 47 ± 2 nM
SMILES: CC[C@H](C)[C@H](NC(=O)[C@H](Cc1ccccc1)NC(=O)[C@H](CCC(=O)O)NC(=O)[C@@H](NC(=O)[C@H](CCC(=O)O)NC(=O)[C@@H](NC(C)=O)[C@@H](C)O)[C@@H](C)O)C(=O)N[C@@H](C)C(=O)N[C@@H](Cc1c[nH]c2ccccc12)C(=O)NCC(=O)N1CCC[C@H]1C(=O)N[C@H](C(=O)NCC(=O)N[C@@H](CC(=O)O)C(=O)N[C@@H](CCC(=O)O)C(=O)N[C@@H](CC(=O)O)C(=O)N[C@@H](C)C(=O)N[C@@H](CC(C)C)C(N)=O)[C@@H](C)O (Ac-TETEFIAWGPTGDEDAL-NH2)

- Ki (Table 7, cells printed in μM, read-out: Ki (nM) mean ± SEM): > 62500 nM
SMILES: CC(=O)N[C@@H](CCC(=O)O)C(=O)N[C@@H](CC(=O)O)C(=O)N[C@@H](CC(=O)O)C(=O)N[C@@H](CO)C(=O)N[C@@H](CC(=O)O)C(=O)N[C@@H](C)C(=O)N[C@@H](Cc1c[nH]c2ccccc12)C(=O)N[C@@H](Cc1c[nH]c2ccccc12)C(=O)NCC(=O)NCC(=O)N[C@@H](C)C(=O)N[C@@H](CC(=O)O)C(=O)N[C@H](C(=O)N[C@@H](CC(=O)O)C(N)=O)[C@@H](C)O (Ac-EDDSDAWWGGADTD-NH2)

- Ki (Table 8, Ala-, D-amino acids and N-methylation scans of AJAP-1WT, read-out: Ki (nM) mean ± SEM): 35 ± 1 nM
SMILES: CC[C@H](C)[C@H](NC(=O)[C@H](Cc1ccccc1)NC(=O)[C@H](CCC(=O)O)NC(=O)[C@@H](NC(=O)[C@H](CCC(=O)O)N(C)C(C)=O)[C@@H](C)O)C(=O)N[C@@H](C)C(=O)N[C@@H](Cc1c[nH]c2ccccc12)C(=O)NCC(=O)N1CCC[C@H]1C(=O)N[C@H](C(=O)NCC(=O)N[C@@H](CC(=O)O)C(=O)N[C@@H](CCC(=O)O)C(=O)N[C@@H](CC(=O)O)C(N)=O)[C@@H](C)O [(N-Me-E)TEFIAWGPTGDED] (Ac-[NMeE]TEFIAWGPTGDED-NH2)
